# Laboratory results published in patent US20260373497A1, “MOLECULAR MACHINES STIMULATE INTERCELLULAR CALCIUM WAVES AND CAUSE MUSCLE CONTRACTION” (William Marsh Rice University, priority 2022, published 2026).
# Where “and” joins values, the source holds several entries; their conditions need not be identical. Identical values can stand only once. Entries after “also recorded” stand apart in the source; their conditions may differ. Like-named read-outs stand apart in the source and are kept apart here.
# Assays:
# [1] = MM rotation rate (thermodynamics of the thermal helix inversion step); format: physicochemical; settings: Table 1; from thermodynamics of thermal helix inversion
# Description: Table 1. Properties of MM 1-4. Partition coefficients and total polar surface area were calculated using the molInspiration online calculator. milogP represents the logarithm of the partition coefficient between octanol and water, used to represent hydrophobicity (higher values are more hydrophobic). Rotation rates were provided using the thermodynamics of the thermal helix inversion step. MM structures provided for reference.
# Effects of Rotation Speed and Directionality: The propensity for unidirectional MM to rotate and exert mechanical force on their environment depend principally on two factors: the rotation rate and the photoconversion efficiency. Both of these depend on MM structure. The rotation rate is determined by the half-life of the thermal helix inversion, which is driven by the steric interactions governing the passage of the rotor over the stator (Pollard et al., 2007). The photoconversion efficiency, also known as the quantum yield of photoisomerization, or ΦP, represents the proportion of photons absorbed by the molecule that drive molecular rotation (as opposed to fluorescence or non-radiative decay processes). ΦP is primarily influenced by the electronic structure. MM directionality can also be influenced by structure, as the driving force for unidirectional rotation depends upon the presence of a stereogenic center.
# Hydra vulgaris = assay: Regional ICW in Hydra (Protocol I); format: in vivo; settings: 24 μM MM; for Regional ICW upon body column stimulation: 24 h, 405 nm, 1 s
# Description: FIGS. 20A-20N—MM induce ICW and muscle contraction in vivo. (a) Image of a Hydra loaded into a microfluidic chamber with anatomical regions marked. Scale bar is 100 μm and applies to (a-c). (b) MM 1 (24 μM) loaded into Hydra for 24 h. (c) A Hydra expressing GCaMP7b in endodermal epitheliomuscular cells. The stimulation regions used for Protocols I and II are marked. Protocol 1 was used for body column stimulation (1 s pulse to a 10 μm diameter circular area) to trigger regional ICW. Protocol II was used for oral region stimulation (2 s pulse to the oral region, ~1000-2000 μm^2) to trigger whole-body contraction. (d) A regional ICW in a Hydra treated with MM 1 and stimulated with 405-nm light via Protocol I. The indicated times represent the time after stimulation at which the image was taken. Scale bar applies to both images and is 100 μm. (e-i) Responses observed from Hydra treated with (e) MM 1, (f) MM 2, (g) MM 3, (h) MM 4, or (i) DMSO control (“C”) and stimulated for 1 s using Protocol I. Bold, colored traces represent the average trace (n=25 across 5 Hydra). Gray traces represent individual experiments. (j) Bar graph showing ICW response rate and (k) box-and-whisker plot showing ICW delay time of Hydra stimulated using Protocol I across MM treatment conditions (n=25 experiments across at least 5 Hydra per condition). ICW responses were defined as ΔF/F0>1. (1) Representative contraction in a Hydra treated with MM 2 and stimulated via Protocol II. Scale bar applies to both images and is 100 μm. (m) Representative GCaMP7b fluorescence trace in a Hydra treated with MM 2 and stimulated using Protocol II. (n) Bar graph showing contractile response rates across treatment conditions for Hydra stimulated for 2 s using Protocol II (at least 50 experiments across ≥5 Hydra per condition). Error bars in bar graphs represent the standard error of the mean. See Example 6 for more info on the calculation of ICW and contractile response rates. For all plots, cyan lines indicate the time of stimulus with 405-nm light (9.0×10^2 W cm^−2), during which no data was collected. * P-value<0.05, ** P-value<0.01, *** P-value<0.001, **** P-value<0.0001.
# Prior to stimulation experiments, Hydra were loaded with MM by incubating with solutions containing 24 μM of MM for 24 h (FIG. 20B). Distinct stimulation protocols were employed to cause either local ICW or whole-body contraction (FIG. 20C). First, treatment of MM-loaded Hydra with pulses of laser light administered to a small region of the body column (Protocol I) caused ICW emanating from the site of stimulation (FIGS. 20D and 21). Similar to ICW evoked in vitro, these ICW propagated throughout the Hydra body column according to the degree of electrical connectivity of the stimulated cells. Distinct propagation kinetics were observed when stimulating different regions of Hydra simultaneously. Second, MM activation was used to attempt to drive whole-body Hydra contractions by administering laser stimuli to the oral region (Protocol II).
# Hydra Preparation, Stimulation, and Imaging: Hydra were raised in Hydra medium containing CaCl2·2H2O, MgCl2·6H2O, KNO3, NaHCO3, and MgSO4 in deionized water at 18 °C in a light-cycled (12 h light, 12 h dark) incubator. Hydra were fed with an excess of freshly brined Artemia Nauplii (Brine Shrimp Direct, Ogden, UT, #BSEP8Z) three times a week. All experiments were performed at room temperature after starving the animals for 2 days. The transgenic line expressing GCaMP6s under the Actin promoter in neurons was generated by embryonic microinjection by the Yuste lab at Columbia University (Addgene: plasmid #102558). The transgenic line expressing GCaMP7b under the Ef1α promoter in endodermal epitheliomuscular tissue was generated by embryonic microinjection in a collaboration by the Robinson lab (Rice University) and the Juliano Lab (University of California, Davis).
# Hydra were incubated with chosen MM 24 h before imaging. […]
# C2C12 myotubes = assay: C2C12 myotube contraction (image subtraction); format: cell-based, mouse; settings: 400-nm light 1.5 s, image subtraction
# Description: FIG. 35—Flow chart for the image subtraction process. First, the background is subtracted from the traces to account for drift during the course of the experiment (top row). After this, the traces are zeroed at the point of stimulation, and the area is calculated from the point of stimulation until the end of the experiment to yield the contraction magnitude. (bottom row).
# FIGS. 40A-40D—MMs induce contraction in C2C12 myotubes, a) Confocal microscopy images of Fluo-4 and b) image subtraction of brightfield images to highlight calcium release and contractile motion in three stimulated myotubes (indicated by the red arrows) immediately before stimulation (t=0) for 1.5 s with 400-nm light, as well as 10 s and 120 s after stimulation. Scale bar=30 μm. c) Magnitude of contraction of MM 1 compared to DMSO, MM 2, MM 3, and cells treated with 10 μM U-73122. d) Mechanism of skeletal muscle cell contraction.
# This method yielded images where the pixel intensity corresponds to movement over the course of the experiment (FIG. 40C), allowing us to easily visualize and quantify contraction.
# [2] = cited from earlier work
compound,measurement,setting,value
CC1Cc2ccc3ccccc3c2C1=C1c2ccccc2Sc2cc(NCCN(C)C)ccc21 (stereo not shown) [MM 1],Rotation rate,[1],3 × 10^6 Hz
same,ICW delay (response) time,Hydra vulgaris,12.76 s
same,Regional ICW upon body column stimulation,Hydra vulgaris,consistently elicited robust regional ICW
same,Myotube contraction,C2C12 myotubes,strong contraction in C2C12 myotubes
same,Rotation rate,[2],~ 3 MHz and 3 MHz
CC1Cc2cc(NCCN(C)C)c3ccccc3c2C1=C1c2ccccc2-c2ccccc21 (stereo not shown) [MM 3],Rotation rate,[1],0.1 Hz
same,ICW delay (response) time,Hydra vulgaris,15.46 s
same,Regional ICW upon body column stimulation,Hydra vulgaris,not significantly different from solvent-only controls
same,Myotube contraction,C2C12 myotubes,Strong cellular contraction did not occur
CN(C)CCNc1ccc2c(c1)Sc1ccccc1C2=C1CCc2ccc3ccccc3c21 [MM 4],Rotation rate,[1],3 × 10^6 Hz
same,ICW delay (response) time,Hydra vulgaris,16.6 s
same,Regional ICW upon body column stimulation,Hydra vulgaris,consistently elicited robust regional ICW; also recorded: elicited regional ICW in Hydra despite causing only weak responses in vitro
same,Rotation rate,[2],3 MHz
